Test results as given in patent publication US10472418B2, “Composition for preventing or treating lung cancer comprising antibody against CD66C and chemotherapeutic agent” (DINONA, priority 2016, dated 2019).

System: anti-CD66c antibody, AP11
Experiment: Inhibition of AP11 binding on A549 cells by recombinant antigen, flow cytometry
Settings: 10, 50 and 100 μg recombinant antigen conjugated with AP11 before A549 cells
Protocol: In order to confirm whether the purified recombinant antigen (CD66c-HuIgFc) in the above Example 1-3 acts as CD66c antigen, inhibition of conjugation of anti-CD66c antibody, AP11, on the surface of A549 cells by the above recombinant antigen was confirmed by flow cytometry, and the result is shown in FIG. 6.
Specifically, after conjugating 0, 10, 50 and 100 μg of the above recombinant antigen with AP11 antibody for 30 min at 4° C., it was added to A549 cells and reacted for 30 min at 4° C., added with 3 ml of PBS, centrifuged for 3 min at 1500 rpm and washed. To confirm the conjugated antibody, secondary antibody, goat anti-Mouse IgM FITC (DiNonA) was diluted 200 times, added, reacted for 15 min at 4° C., washed as above with 3 ml of PBS and measured by flow cytometry.

For “CD66c-HuIgFc: recombinant antigen linking CD66c 34~340 aa region and human immunoglobulin Fc region CH2-CH3”, the “blocking of anti-CD66c mAb (AP11) binding to A549 cells” value was “blocking was observed proportional to the treated amount”.
